Measured values published in the kinase profiling compilation of Christmann-Franck et al. (2016).
One block for each molecule: values may come before it.

Key:
Experiment in all cases: radiometric filter-binding kinase assay
[1] = biological target: CSNK2A1 or CSNK2A2 (human) (UniProt P19784+P68400); details: compound 1.0 µM; ATP 5 µM
MAPK11 (human) = MAPK11 (human) (UniProt Q15759); details: compound 1.0 µM; ATP 20 µM
PAK7 (human) = PAK7 (human) (UniProt Q9P286); details: compound 1.0 µM; ATP 20 µM
PDPK1 (human) = PDPK1 (human) (UniProt O15530); details: compound 1.0 µM
PHKG1 or PHKG2 (human) = PHKG1 or PHKG2 (human) (UniProt P15735+Q16816); details: compound 1.0 µM; ATP 50 µM
PRKCG (human) = PRKCG (human) (UniProt P05129); details: compound 1.0 µM; ATP 5 µM
SRC (chicken) = details: ATP 50 µM, accession and sequence are those of the human protein
CSNK1D (human) = CSNK1D (human) (UniProt P48730); details: compound 1.0 µM; ATP 20 µM
MAPK14 (human) = MAPK14 (human) (UniProt Q16539); details: compound 10.0 µM; ATP 50 µM
MAPK9 (human) = MAPK9 (human) (UniProt P45984); details: compound 25.0 µM; ATP 20 µM
[2] = system: AKT1 (human), P31749 [S473D]; details: compound 10.0 µM; ATP 5 µM
PKN2 (human) = PKN2 (human) (UniProt Q16513); details: compound 10.0 µM; ATP 5 µM
Chain of PKN2 (human) (Q16513 whole entry, looked up): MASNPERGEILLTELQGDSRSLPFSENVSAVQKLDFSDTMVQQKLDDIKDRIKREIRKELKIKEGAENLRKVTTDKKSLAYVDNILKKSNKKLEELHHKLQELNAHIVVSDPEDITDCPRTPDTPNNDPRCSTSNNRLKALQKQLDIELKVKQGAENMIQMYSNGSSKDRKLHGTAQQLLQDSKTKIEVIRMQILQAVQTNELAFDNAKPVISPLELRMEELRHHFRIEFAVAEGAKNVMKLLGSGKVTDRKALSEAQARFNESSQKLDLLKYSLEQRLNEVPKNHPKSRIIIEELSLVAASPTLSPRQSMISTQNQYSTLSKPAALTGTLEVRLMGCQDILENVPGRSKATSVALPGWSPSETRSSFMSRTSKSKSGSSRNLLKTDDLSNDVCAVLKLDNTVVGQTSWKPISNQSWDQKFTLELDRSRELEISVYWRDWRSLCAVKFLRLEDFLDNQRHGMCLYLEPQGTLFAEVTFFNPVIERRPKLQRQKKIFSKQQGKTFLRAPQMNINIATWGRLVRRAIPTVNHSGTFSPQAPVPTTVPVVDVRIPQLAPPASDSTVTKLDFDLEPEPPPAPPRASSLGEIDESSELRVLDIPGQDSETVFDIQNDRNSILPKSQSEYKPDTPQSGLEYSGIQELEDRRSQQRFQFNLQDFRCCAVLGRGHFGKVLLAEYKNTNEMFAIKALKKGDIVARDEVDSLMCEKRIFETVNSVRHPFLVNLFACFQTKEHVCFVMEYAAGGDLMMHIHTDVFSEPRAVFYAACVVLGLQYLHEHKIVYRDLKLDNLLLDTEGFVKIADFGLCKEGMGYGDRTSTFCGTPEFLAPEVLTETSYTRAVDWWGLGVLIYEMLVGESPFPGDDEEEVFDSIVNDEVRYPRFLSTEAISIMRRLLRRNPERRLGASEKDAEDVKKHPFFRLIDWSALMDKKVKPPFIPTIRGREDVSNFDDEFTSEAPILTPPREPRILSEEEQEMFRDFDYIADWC

Chain of PDPK1 (human) (O15530 whole entry, looked up): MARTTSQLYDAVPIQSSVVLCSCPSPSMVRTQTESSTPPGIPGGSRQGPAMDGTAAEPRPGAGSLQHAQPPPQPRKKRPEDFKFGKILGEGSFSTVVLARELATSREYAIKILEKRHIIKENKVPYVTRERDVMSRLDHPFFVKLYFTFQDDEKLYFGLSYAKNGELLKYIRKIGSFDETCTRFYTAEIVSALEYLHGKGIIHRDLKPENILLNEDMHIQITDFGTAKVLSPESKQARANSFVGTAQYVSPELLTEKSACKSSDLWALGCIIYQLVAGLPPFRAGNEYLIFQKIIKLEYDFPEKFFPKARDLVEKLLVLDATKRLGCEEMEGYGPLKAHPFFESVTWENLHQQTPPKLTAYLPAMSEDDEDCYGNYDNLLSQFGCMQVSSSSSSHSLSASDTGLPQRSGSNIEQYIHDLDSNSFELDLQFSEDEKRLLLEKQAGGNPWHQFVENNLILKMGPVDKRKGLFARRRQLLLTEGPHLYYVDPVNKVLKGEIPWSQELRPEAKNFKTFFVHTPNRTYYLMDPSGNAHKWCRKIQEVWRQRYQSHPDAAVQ
Chain of MAPK9 (human) (P45984 whole entry, looked up): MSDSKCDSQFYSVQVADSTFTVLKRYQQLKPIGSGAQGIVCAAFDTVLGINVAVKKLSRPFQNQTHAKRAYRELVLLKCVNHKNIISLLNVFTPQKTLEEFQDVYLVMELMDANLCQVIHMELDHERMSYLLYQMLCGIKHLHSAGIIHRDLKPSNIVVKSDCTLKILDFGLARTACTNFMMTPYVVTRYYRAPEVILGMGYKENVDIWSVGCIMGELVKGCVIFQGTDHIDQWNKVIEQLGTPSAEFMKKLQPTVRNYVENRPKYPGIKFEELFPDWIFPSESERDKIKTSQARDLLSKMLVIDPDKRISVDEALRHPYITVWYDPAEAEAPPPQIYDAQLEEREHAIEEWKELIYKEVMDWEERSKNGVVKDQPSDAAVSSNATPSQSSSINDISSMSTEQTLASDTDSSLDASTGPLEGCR
Chain of CSNK1D (human) (P48730 whole entry, looked up): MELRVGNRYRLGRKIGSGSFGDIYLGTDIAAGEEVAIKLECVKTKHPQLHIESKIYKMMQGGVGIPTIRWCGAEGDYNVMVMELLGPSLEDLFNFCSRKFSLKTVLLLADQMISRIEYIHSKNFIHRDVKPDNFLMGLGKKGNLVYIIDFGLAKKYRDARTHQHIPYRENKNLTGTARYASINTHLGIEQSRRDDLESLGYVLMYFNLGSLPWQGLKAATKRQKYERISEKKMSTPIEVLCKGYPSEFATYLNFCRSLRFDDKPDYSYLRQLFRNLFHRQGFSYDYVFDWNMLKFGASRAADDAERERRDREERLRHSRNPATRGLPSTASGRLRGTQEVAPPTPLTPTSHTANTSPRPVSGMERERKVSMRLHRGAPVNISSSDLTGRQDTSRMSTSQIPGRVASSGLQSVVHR
Chain of MAPK14 (human) (Q16539 whole entry, looked up): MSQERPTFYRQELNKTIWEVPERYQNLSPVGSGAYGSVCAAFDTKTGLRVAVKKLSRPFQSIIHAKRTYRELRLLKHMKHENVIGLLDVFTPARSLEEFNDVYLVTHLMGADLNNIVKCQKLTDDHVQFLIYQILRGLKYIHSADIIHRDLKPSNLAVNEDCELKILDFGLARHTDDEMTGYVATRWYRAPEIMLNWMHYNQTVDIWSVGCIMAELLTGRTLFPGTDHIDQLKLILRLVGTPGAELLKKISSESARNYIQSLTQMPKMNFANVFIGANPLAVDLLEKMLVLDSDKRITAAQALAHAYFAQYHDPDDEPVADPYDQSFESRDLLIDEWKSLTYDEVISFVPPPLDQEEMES
Chain of AKT1 (human), P31749 [S473D] (P31749 whole entry S473D, looked up): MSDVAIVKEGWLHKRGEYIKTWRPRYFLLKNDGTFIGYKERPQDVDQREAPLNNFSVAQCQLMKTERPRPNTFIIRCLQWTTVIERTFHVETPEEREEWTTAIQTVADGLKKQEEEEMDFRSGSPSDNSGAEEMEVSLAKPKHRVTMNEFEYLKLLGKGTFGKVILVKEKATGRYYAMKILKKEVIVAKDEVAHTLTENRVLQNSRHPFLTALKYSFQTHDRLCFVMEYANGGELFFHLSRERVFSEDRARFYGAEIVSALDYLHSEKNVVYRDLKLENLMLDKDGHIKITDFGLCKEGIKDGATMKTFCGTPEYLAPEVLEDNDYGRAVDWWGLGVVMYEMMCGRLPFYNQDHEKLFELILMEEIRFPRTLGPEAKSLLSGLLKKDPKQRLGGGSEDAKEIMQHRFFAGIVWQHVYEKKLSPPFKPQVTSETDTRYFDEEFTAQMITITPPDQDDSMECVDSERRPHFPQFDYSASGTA
Chain of MAPK11 (human) (Q15759 whole entry, looked up): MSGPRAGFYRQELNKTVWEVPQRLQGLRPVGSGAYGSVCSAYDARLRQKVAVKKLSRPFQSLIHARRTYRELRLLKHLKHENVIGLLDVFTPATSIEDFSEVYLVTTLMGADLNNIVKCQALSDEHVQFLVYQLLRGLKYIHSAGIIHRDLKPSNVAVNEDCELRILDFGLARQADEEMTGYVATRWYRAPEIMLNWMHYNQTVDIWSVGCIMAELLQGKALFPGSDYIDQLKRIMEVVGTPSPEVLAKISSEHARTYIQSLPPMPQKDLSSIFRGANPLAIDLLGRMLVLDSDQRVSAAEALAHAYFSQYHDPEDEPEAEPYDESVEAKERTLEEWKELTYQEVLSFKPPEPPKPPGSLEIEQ
Chain of PHKG1 or PHKG2 (human) (P15735 whole entry, looked up): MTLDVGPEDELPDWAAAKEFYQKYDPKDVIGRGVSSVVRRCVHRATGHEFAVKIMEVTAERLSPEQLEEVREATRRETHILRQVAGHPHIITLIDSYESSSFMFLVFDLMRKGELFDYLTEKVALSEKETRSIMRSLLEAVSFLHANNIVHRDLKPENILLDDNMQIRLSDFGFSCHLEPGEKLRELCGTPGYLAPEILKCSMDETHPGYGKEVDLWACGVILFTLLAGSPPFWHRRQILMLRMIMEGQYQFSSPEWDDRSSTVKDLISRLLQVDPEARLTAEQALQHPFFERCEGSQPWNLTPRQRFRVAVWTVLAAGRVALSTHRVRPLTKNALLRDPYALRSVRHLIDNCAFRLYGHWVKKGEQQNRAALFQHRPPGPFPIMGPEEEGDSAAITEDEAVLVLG
Chain of PHKG1 or PHKG2 (human) (Q16816 whole entry, looked up): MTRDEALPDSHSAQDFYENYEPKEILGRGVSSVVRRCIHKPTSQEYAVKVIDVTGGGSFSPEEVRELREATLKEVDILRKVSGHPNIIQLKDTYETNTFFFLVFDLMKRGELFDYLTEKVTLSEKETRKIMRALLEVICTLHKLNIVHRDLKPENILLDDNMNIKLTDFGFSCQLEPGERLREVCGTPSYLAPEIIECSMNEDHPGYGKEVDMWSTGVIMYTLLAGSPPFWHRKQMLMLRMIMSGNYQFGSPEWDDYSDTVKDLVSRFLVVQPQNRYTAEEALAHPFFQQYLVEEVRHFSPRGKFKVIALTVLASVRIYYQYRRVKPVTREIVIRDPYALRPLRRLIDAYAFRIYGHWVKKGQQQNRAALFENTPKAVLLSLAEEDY

Structure (SMILES): CC[C@@H](CO)Nc1nc(NCc2ccccc2)c2ncn(C(C)C)c2n1
residual activity [1]: 92%
residual activity (MAPK11 (human)): 94%
residual activity (PAK7 (human)): 74%
residual activity (PDPK1 (human); ATP 20 µM): 80%
residual activity (PDPK1 (human); ATP 50 µM): 90%
residual activity (PHKG1 or PHKG2 (human)): 93%
residual activity (PRKCG (human)): 82%

Structure (SMILES): COc1ccc2c(c1)[nH]c1c(C)nccc12
residual activity (CSNK1D (human)): 60%

Structure (SMILES): CN(C)S(=O)(=O)c1ccc2c(c1)/C(=C/c1cc3c([nH]1)CCCC3)C(=O)N2
IC50 (SRC (chicken)): 0.1 µM

Structure (SMILES): COc1cc(OC)c(/C=C2\C(=O)Nc3ccccc32)c(OC)c1
residual activity (MAPK9 (human)): 101%

More lines, now with the values ahead:

residual activity (SRC (chicken); compound 1.0 µM): 20%
Structure (SMILES): CC(C)(C)n1nc(-c2cccc3ccccc23)c2c(N)ncnc21

residual activity (MAPK14 (human)): 8%
Structure (SMILES): Cc1ccc(NC(=O)c2cccc(N(C)C)c2)cc1NC(=O)c1ccc(O)cc1

residual activity [2]: 107%
residual activity (PKN2 (human)): 107%
Structure (SMILES): NC(=O)c1ccc(-c2nc(-c3ccccn3)c(-c3ccc4c(c3)OCCO4)[nH]2)cc1
